# Experimental data from PubChem BioAssay (NCI).
#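 Cultured in 96-well plates, cells were exposed to test compound for 48 hours across five concentrations. GI50 marks 50% less growth. TGI: concentration producing complete growth inhibition.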
# Columns and labels:
# Test in all cases: NCI anticancer screen, dose series, 48 h
# [1] = tested on: SK-MEL-28 melanoma
# [2] = tested on: NCI/ADR-RES ovarian
# [3] = tested on: LOX IMVI melanoma
# [4] = tested on: CCRF-CEM leukemia
# [5] = tested on: TK-10 renal
# [6] = tested on: MOLT-4 leukemia
# [7] = tested on: OVCAR-4 ovarian
# [8] = tested on: 786-0 renal
# [9] = tested on: SF-539 CNS
# [10] = tested on: ACHN renal
# [11] = tested on: SNB-19 CNS
# [12] = tested on: HCT-15 colon
# [13] = tested on: KM12 colon
# [14] = tested on: SF-295 CNS
# [15] = tested on: HCC-2998 colon
# [16] = tested on: MCF7 breast
# [17] = tested on: SNB-75 CNS
# [18] = tested on: RPMI-8226 leukemia
# [19] = tested on: UO-31 renal
# [20] = tested on: IGROV1 ovarian
# [21] = tested on: A498 renal
# [22] = tested on: OVCAR-8 ovarian
# [23] = tested on: K-562 leukemia
# [24] = tested on: MDA-MB-231 breast
# [25] = tested on: HCT-116 colon
# [26] = tested on: UACC-62 melanoma
# [27] = tested on: HT29 colon
# [28] = tested on: BT-549 breast
# [29] = tested on: SF-268 CNS
# [30] = tested on: NCI-H23 lung
# [31] = tested on: T-47D breast
# [32] = tested on: NCI-H460 lung
# [33] = tested on: RXF 393 renal
# [34] = tested on: NCI-H522 lung
# [35] = tested on: PC-3 prostate
# [36] = tested on: SW-620 colon
# [37] = tested on: NCI-H226 lung
# [38] = tested on: HOP-62 NSCLC
# [39] = tested on: HOP-92 NSCLC
# [40] = tested on: OVCAR-5 ovarian
# [41] = tested on: SK-OV-3 ovarian
# [42] = tested on: OVCAR-3 ovarian
# [43] = tested on: SK-MEL-2 melanoma
# [44] = tested on: SK-MEL-5 melanoma
# [45] = tested on: U251 CNS
# [46] = tested on: MALME-3M melanoma
# [47] = tested on: DU-145 prostate
# [48] = tested on: A549 NSCLC
# [49] = tested on: SR leukemia
# [50] = tested on: COLO 205 colon
# [51] = tested on: MDA-MB-435
# [52] = tested on: UACC-257 melanoma
# [53] = tested on: SN12C renal
# [54] = tested on: CAKI-1 renal
# [55] = tested on: HL-60(TB) leukemia
smiles,measurement,setting,value
CCn1nc(-c2ccc(C(=O)OC)cc2)nc2c(=O)n(C)c(=O)nc1-2,GI50,[1],1380 nM
same,TGI,[1],2880 nM
same,GI50,[2],484 nM
same,TGI,[2],2420 nM
same,GI50,[3],375 nM
same,TGI,[3],1500 nM
same,GI50,[4],566 nM
same,TGI,[4],11300 nM
same,GI50,[5],3110 nM
same,TGI,[5],6740 nM
same,GI50,[6],393 nM
same,TGI,[6],2410 nM
same,GI50,[7],479 nM
same,TGI,[7],1880 nM
same,GI50,[8],1320 nM
same,TGI,[8],3310 nM
same,GI50,[9],359 nM
same,TGI,[9],1550 nM
same,GI50,[10],1080 nM
same,TGI,[10],2260 nM
same,GI50,[11],1110 nM
same,TGI,[11],2370 nM
same,GI50,[12],371 nM
same,TGI,[12],1610 nM
same,GI50,[13],421 nM
same,TGI,[13],2230 nM
same,GI50,[14],637 nM
same,TGI,[14],1980 nM
same,GI50,[15],763 nM
same,TGI,[15],2240 nM
same,GI50,[16],148 nM
same,TGI,[16],372 nM
same,GI50,[17],1190 nM
same,TGI,[17],2420 nM
same,GI50,[18],340 nM
same,TGI,[18],1760 nM
same,GI50,[19],1080 nM
same,TGI,[19],2280 nM
same,GI50,[20],1080 nM
same,TGI,[20],2450 nM
same,GI50,[21],166 nM
same,TGI,[21],988 nM
same,GI50,[22],368 nM
same,TGI,[22],1450 nM
same,GI50,[23],251 nM
same,TGI,[23],1090 nM
same,GI50,[24],461 nM
same,TGI,[24],6330 nM
same,GI50,[25],283 nM
same,TGI,[25],1010 nM
same,GI50,[26],216 nM
same,TGI,[26],594 nM
same,GI50,[27],266 nM
same,TGI,[27],2400 nM
same,GI50,[28],1550 nM
same,TGI,[28],2990 nM
same,GI50,[29],1120 nM
same,TGI,[29],3060 nM
same,GI50,[30],1220 nM
same,TGI,[30],3160 nM
same,GI50,[31],332 nM
same,TGI,[31],1420 nM
same,GI50,[32],488 nM
same,TGI,[32],3270 nM
same,GI50,[33],1570 nM
same,TGI,[33],3260 nM
same,GI50,[34],484 nM
same,TGI,[34],1990 nM
same,GI50,[35],347 nM
same,TGI,[35],8220 nM
same,GI50,[36],676 nM
same,TGI,[36],2180 nM
same,GI50,[37],1360 nM
same,TGI,[37],2690 nM
same,GI50,[38],1070 nM
same,TGI,[38],2580 nM
same,GI50,[39],1720 nM
same,TGI,[39],3390 nM
same,GI50,[40],460 nM
same,TGI,[40],1770 nM
same,GI50,[41],1450 nM
same,TGI,[41],2750 nM
same,GI50,[42],181 nM
same,TGI,[42],566 nM
same,GI50,[43],524 nM
same,TGI,[43],2040 nM
same,GI50,[44],128 nM
same,TGI,[44],260 nM
same,GI50,[45],360 nM
same,TGI,[45],1380 nM
same,GI50,[46],216 nM
same,TGI,[46],836 nM
same,GI50,[47],1110 nM
same,TGI,[47],2320 nM
same,GI50,[48],413 nM
same,TGI,[48],1720 nM
same,GI50,[49],744 nM
same,TGI,[49],12100 nM
same,GI50,[50],211 nM
same,TGI,[50],643 nM
same,GI50,[51],162 nM
same,TGI,[51],310 nM
same,GI50,[52],306 nM
same,TGI,[52],1080 nM
same,GI50,[53],193 nM
same,TGI,[53],411 nM
same,GI50,[54],1220 nM
same,TGI,[54],2460 nM
same,GI50,[55],319 nM
same,TGI,[55],1150 nM
